Data on eleven compounds can be found in ChEMBL document CHEMBL1201862, “PubChem BioAssay data set” (2004).

Among the test systems are A549; CCRF-CEM; HCT-15; HT-29; IGROV-1; K562; M14; MDA-MB-231; NCI-H226; NCI-H522; PC-3; SF-268; SF-295; SK-MEL-28; SW-620; UACC-62; HL-60; SF-539; SN12C; HOP-92.
Common to all, as to test: NCI tumour cell line growth inhibition, 48 h

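Cells were grown in 96-well plates and exposed to each compound for 48 hours at five concentrations; endpoints were interpolated linearly between bracketing concentrations, or set to the highest concentration if not reached. GI50: concentration for 50% inhibition of growth.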 The source made the active and inactive calls. No stated cut-off is given here; in the data, active = GI50 up to about 1.1 µM and inactive = higher. Some results are limits rather than exact numbers.

For the compound `S=C(N1CCN(c2ccc(Cl)c(Cl)c2)CC1)N1CCN(c2ccc(Cl)c(Cl)c2)CC1`, the GI50 in the test with A549 was 16.3 µM (inactive); with CCRF-CEM, 3.42 µM (inactive); with HCT-15, 15.4 µM; in the test with HT-29 it was 9.42 µM (inactive); in the test with IGROV-1, 10.7 µM (inactive); with K562, 12.2 µM (inactive). Moreover, the GI50 in the test on M14 is 15.6 µM (inactive); in the test with MDA-MB-231, 9.08 µM (inactive); in the test with NCI-H226, 11.1 µM (inactive); in the test with NCI-H522, 10.9 µM (inactive); in the test with PC-3 it was 12.7 µM (inactive); in the test on SF-268, 14.4 µM (inactive). The GI50 in the test with SF-295 was 9.25 µM (inactive); in the test on SK-MEL-28, 14.7 µM (inactive); in the test on SW-620 it was 17.5 µM (inactive); with UACC-62, 15.5 µM (inactive).
`O=C1NCC2(CCN(CC3COc4ccccc4O3)CC2)N1c1ccccc1` (stereo not given): the GI50 in the test with A549 is > 100 µM (inactive); with CCRF-CEM it was > 100 µM (inactive); with HCT-15, greater than 100 µM; in the test with HL-60, 60.3 µM (inactive); in the test on HT-29, > 100 µM (inactive); with IGROV-1, > 100 µM (inactive). Further, the GI50 was 80.4 µM (inactive) in the test with K562; > 100 µM (inactive) with M14; > 100 µM (inactive) in the test on MDA-MB-231; > 100 µM (inactive) in the test with NCI-H226; > 100 µM (inactive) in the test with NCI-H522; > 100 µM (inactive) in the test on PC-3. Moreover, the GI50 in the test on SF-268 is > 100 µM (inactive); in the test with SF-295, > 100 µM (inactive); in the test on SF-539 it was > 100 µM (inactive); in the test on SK-MEL-28 it was 89.5 µM (inactive); in the test on SN12C, > 100 µM (inactive); in the test with SW-620 it was > 100 µM (inactive). In addition, the GI50 in the test with UACC-62 is > 100 µM (inactive).
On to `CN(C)C(=O)Oc1ccc[n+](C)c1` [PYRIDOSTIGMINE BROMIDE], for which the GI50 was greater than 100 µM in the test on HCT-15; > 100 µM (inactive) in the test with HL-60; > 100 µM (inactive) in the test with HT-29; > 100 µM (inactive) with IGROV-1; > 100 µM (inactive) in the test with K562; > 100 µM (inactive) with MDA-MB-231. The GI50 with NCI-H226, in the test with NCI-H522, in the test on PC-3, with SF-268, with SF-295 and in the test on SK-MEL-28 was > 100 µM (inactive) throughout. In addition, the GI50 in the test on SN12C, in the test on SW-620 and with UACC-62 was > 100 µM (inactive) throughout.
As for `C[n+]1c(-c2ccc(/C=N/NC(=S)N/N=C/c3ccc(-c4cn5ccsc5[n+]4C)cc3)cc2)cn2ccsc21`, the GI50 with A549 is > 100 µM (inactive); in the test with CCRF-CEM, 36.6 µM (inactive); with HCT-15, greater than 100 µM; in the test on HL-60 it was > 100 µM (inactive); in the test with HT-29 it was 75.5 µM (inactive); in the test with IGROV-1, > 100 µM (inactive). For the same compound, the GI50 in the test with K562 was > 10 µM (inactive); with M14 it was > 100 µM (inactive); with MDA-MB-231, > 100 µM (inactive); in the test on NCI-H522 it was > 100 µM (inactive); in the test on PC-3, > 100 µM (inactive); in the test with SF-268, > 100 µM (inactive). For the same compound, the GI50 in the test with SF-295, in the test with SF-539, with SK-MEL-28, in the test on SN12C and with SW-620 was > 100 µM (inactive) throughout.
Consider `O=C(N/N=C1/C(=O)c2c3ccccc3cc3cccc1c23)c1cccc(Cl)c1`, for which the GI50 is > 100 µM (inactive) in the test with A549; 67.6 µM (inactive) in the test with CCRF-CEM; greater than 100 µM in the test on HCT-15; > 100 µM (inactive) with HL-60; > 100 µM (inactive) in the test with HOP-92; > 100 µM (inactive) with HT-29. The GI50 was 2.78 µM (inactive) with IGROV-1; > 100 µM (inactive) in the test with K562; > 100 µM (inactive) in the test with M14; > 100 µM (inactive) in the test on MDA-MB-231; > 100 µM (inactive) with NCI-H226; > 100 µM (inactive) with PC-3. The GI50 is 90.2 µM (inactive) in the test with SF-539; > 100 µM (inactive) in the test with SK-MEL-28; > 100 µM (inactive) in the test on SN12C; > 100 µM (inactive) in the test with SW-620; 69.7 µM (inactive) in the test on UACC-62.
`Cc1ccc(C)n1-n1c(Cc2ccccc2)n[nH]c1=O`: the GI50 with A549 was > 100 µM (inactive); in the test with CCRF-CEM it was > 100 µM (inactive); in the test on HCT-15, greater than 100 µM; in the test on HT-29 it was > 100 µM (inactive); in the test with IGROV-1, > 100 µM (inactive); with K562, > 100 µM (inactive). The GI50 in the test on M14 was > 100 µM (inactive); in the test on MDA-MB-231, > 100 µM (inactive); in the test with NCI-H226, > 100 µM (inactive); in the test with NCI-H522, 49.2 µM (inactive); in the test with PC-3, > 100 µM (inactive); in the test with SF-268 it was > 100 µM (inactive). Besides, the GI50 with SF-295, in the test with SK-MEL-28, with SN12C, in the test with SW-620 and in the test on UACC-62 was > 100 µM (inactive) in each case.
For `O=C1CN(c2cccc(C(F)(F)F)c2)C(=O)CN1NCNN1CC(=O)N(c2cccc(C(F)(F)F)c2)CC1=O`, the GI50 is > 100 µM (inactive) in the test with A549; > 100 µM (inactive) in the test with CCRF-CEM; greater than 100 µM with HCT-15; > 100 µM (inactive) in the test with HL-60; > 100 µM (inactive) in the test with HT-29; > 100 µM (inactive) with IGROV-1. Moreover, the GI50 in the test on K562 was > 100 µM (inactive); with M14 it was > 100 µM (inactive); in the test on MDA-MB-231, > 100 µM (inactive); in the test with NCI-H522 it was 52.5 µM (inactive); in the test with PC-3, > 100 µM (inactive); in the test on SF-268, > 100 µM (inactive). Also, the GI50 in the test with SF-295, in the test on SF-539, in the test on SK-MEL-28, in the test with SN12C and in the test on SW-620 was > 100 µM (inactive) each time.
For the compound `COC(OC)[C@@H]1OC[C@H](n2ccc(=O)[nH]c2=O)[C@H]1O`, the GI50 is > 100 µM (inactive) in the test with A549; > 100 µM (inactive) in the test with CCRF-CEM; greater than 100 µM in the test on HCT-15; > 100 µM (inactive) in the test on HOP-92; > 100 µM (inactive) in the test on HT-29; > 100 µM (inactive) with IGROV-1. Besides, the GI50 with K562, with M14, with MDA-MB-231, with NCI-H226, in the test with PC-3 and with SF-268 was > 100 µM (inactive) throughout. Also, the GI50 in the test with SF-295, in the test on SF-539, in the test with SK-MEL-28, in the test on SN12C, in the test on SW-620 and in the test with UACC-62 was > 100 µM (inactive) in each case.
As for `CC(C)(C)SC1=CCC[C@@H](P(=O)(c2ccccc2)c2ccccc2)[C@@H]2CCC[C@@H]12`, the GI50 was 17.2 µM (inactive) in the test on A549; 24.6 µM (inactive) with CCRF-CEM; 16.6 µM with HCT-15; 20 µM (inactive) in the test on HL-60; 13.7 µM (inactive) with HOP-92; 14.2 µM (inactive) with HT-29. Also, the GI50 in the test with IGROV-1 is 17.2 µM (inactive); in the test with K562, 19.3 µM (inactive); with M14, 15.3 µM (inactive); in the test with NCI-H226 it was 17.7 µM (inactive); in the test with NCI-H522, 15.7 µM (inactive); with PC-3, 14 µM (inactive). Besides, the GI50 was 17.8 µM (inactive) with SF-268; 15.1 µM (inactive) in the test on SF-295; 18.8 µM (inactive) in the test on SF-539; 24.3 µM (inactive) with SK-MEL-28; 15.7 µM (inactive) with SN12C; 27 µM (inactive) with SW-620. The GI50 with UACC-62 is 12.4 µM (inactive).
In the case of `CC(=O)/C(=C/n1c(=S)sc2ccccc21)C(=O)Nc1ccccc1C`, the GI50 in the test with A549 is > 100 µM (inactive); in the test on HCT-15, greater than 100 µM; with HL-60 it was 31.6 µM (inactive); in the test on HOP-92 it was 41.1 µM (inactive); in the test on HT-29, > 100 µM (inactive); with IGROV-1 it was 59.8 µM (inactive). The GI50 was > 100 µM (inactive) with M14; > 100 µM (inactive) in the test with MDA-MB-231; 31.1 µM (inactive) with NCI-H226; > 100 µM (inactive) in the test with SF-268; > 100 µM (inactive) with SF-295; > 100 µM (inactive) in the test with SF-539. Besides, the GI50 in the test on SK-MEL-28, with SN12C, in the test with SW-620 and in the test with UACC-62 was > 100 µM (inactive) each time.
Turning to `C[C@H]1ON2CCC[C@@H]2[C@@H]1C(=O)N1C2CC3CCC2(CS1(=O)=O)C3(C)C` (stereo not given in full), the GI50 in the test with A549 was > 100 µM (inactive); in the test on CCRF-CEM, > 100 µM (inactive); in the test with HCT-15 it was greater than 100 µM; in the test on HL-60, 0.295 µM (active); in the test on HT-29, > 100 µM (inactive); in the test on IGROV-1 it was > 100 µM (inactive). Moreover, the GI50 in the test on K562, with M14, in the test with MDA-MB-231, in the test on NCI-H226, with NCI-H522 and in the test with PC-3 was > 100 µM (inactive) throughout. Besides, the GI50 in the test on SF-268, in the test with SF-295, in the test with SF-539, with SK-MEL-28, in the test on SN12C and with SW-620 was > 100 µM (inactive) each time. In addition, the GI50 in the test on UACC-62 is > 100 µM (inactive).
